Assay results from patent US5250283A, “Organic contrast agent analog and method of making same” (priority 1992, dated 1993).
Counter-ions that a name gives are not always drawn. Like-named read-outs stand apart in the source and are kept apart here.

Key:
[1] = Plasma concentration after i.v. IOP or TFA-IOP in rats; format: in vivo; conditions: rat
[2] = Urinary excretion after i.v. IOP or TFA-IOP in rats; format: in vivo; conditions: rat
[3] = Tissue distribution 90 min after i.v. TFA-IOP (100 umol/kg) or IOP (100 in text, 104 umol/kg in tables) in rats; format: in vivo; conditions: rat; for concentration at 1.5 h / tissue uptake at 1.5 h: iv; for concentration at 1.5 h: 100 umol/kg; for Percentage of dose in tissue: Table 6; for tissue uptake at 1.5 h: in vivo, read-out: Percentage of dose per gram
Source text: No standard curves were compiled for these tissues. The values given
represent concentrations generated using the LIVER analysis routine and
standard curve. Because this routine utilizes a control LIVER spectra for
background modeling, erroneous Iodine concentration values for these
tissues may result due to inappropriate background removal.

[4] = Biliary excretion and bile flow after i.v. TFA-IOP (100 umol/kg) or IOP (100 in text, 104 umol/kg in tables) in rats; conditions: for Percentage of dose per kg. body wt.: rat bile, i.v.
Protocol: Tissues examined included liver, spleen, upper GI, lower GI, kidney, lung and heart. The length of each study was 90 minutes, during which time bile, urine and plasma samples were taken to monitor uptake and excretion. NMR relaxation rates for liver and plasma were also examined to note whether uptake of either compound might possible alter these parameters.

[5] = i.v., 90 min, Table 1, liver standard curve, may be erroneous

SMILES: CCC(Cc1c(I)cc(I)c(NC(=O)C(F)(F)F)c1I)C(=O)O (stereo not shown) [TFA-IOP, N-trifluoroacetyl-iopanoic acid]
- concentration at 10 min ([1]; plasma, iv, 100 umol/kg, 10 min): 863 µM
- concentration at 20 min ([1]; plasma, iv, 100 umol/kg, 20 min): 604 µM
- concentration at 0.5 h ([1]; plasma, iv, 100 umol/kg, 30 min): 573 µM
- concentration at 40 min ([1]; plasma, iv, 100 umol/kg, 40 min): 510 µM
- concentration at 50 min ([1]; plasma, iv, 100 umol/kg, 50 min): 469 µM
- concentration at 1 h ([1]; plasma, iv, 100 umol/kg, 60 min): 415 µM
- concentration at 70 min ([1]; plasma, iv, 100 umol/kg, 70 min): 374 µM
- concentration at 80 min ([1]; plasma, iv, 100 umol/kg, 80 min): 403 µM
- concentration at 1.5 h ([1]; plasma, iv, 100 umol/kg, 90 min): 360 µM
- Plasma concentration ([1]; 0 min): 0 nM
- Urine concentration ([2]; 0-20 min): 0 µM
- Urine concentration ([2]; 20-40 min): 0 µM
- concentration at 1.5 h ([3]; heart, i.v., 90 min, liver standard curve used, may be erroneous, read-out: Heart concentration): 243 µM
- % of dose in kidney ([3]; i.v., 90 min, Table 1): 0.34%
- % of dose in liver ([3]; i.v., 90 min, Table 1): 6.04%
- % of dose in heart [3, 5]: 0.72%
- % of dose in lower GI [3, 5]: 0.63%
- % of dose in lung [3, 5]: 0.83%
- % of dose in spleen [3, 5]: 0.24%
- % of dose in upper GI [3, 5]: 0.41%
- Percentage of dose per kg b.wt. ([3]; i.v., 90 min, heart): 1.66 PERCENTAGE OF DOSE per kg b.wt
- uMoles in tissue ([3]; i.v., 90 min, heart): .31 µmol
- uMoles per gram tissue ([3]; i.v., 90 min, heart): .24 uMOLES per gram
- uMoles per kg ([3]; i.v., 90 min, heart): 242.85 uMOLES per kg
- Percentage of dose in tissue ([3]; i.v., 90 min, heart): .72 PERCENTAGE OF DOSE
- Percentage of dose per kg b.wt. ([3]; i.v., 90 min, kidney): .78 PERCENTAGE OF DOSE per kg b.wt
- uMoles in tissue ([3]; i.v., 90 min, kidney): .15 µmol
- uMoles per gram tissue ([3]; i.v., 90 min, kidney): .06 uMOLES per gram
- uMoles per kg ([3]; i.v., 90 min, kidney): 57.84 uMOLES per kg
- Percentage of dose in tissue ([3]; i.v., 90 min, kidney): .34 PERCENTAGE OF DOSE
- Percentage of dose per kg b.wt. ([3]; i.v., 90 min, liver): 13.88 PERCENTAGE OF DOSE per kg b.wt
- uMoles in tissue ([3]; i.v., 90 min, liver): 2.63 µmol
- uMoles per gram tissue ([3]; i.v., 90 min, liver): .20 uMOLES per gram
- uMoles per kg ([3]; i.v., 90 min, liver): 201.73 uMOLES per kg
- Percentage of dose in tissue ([3]; i.v., 90 min, liver): 6.04 PERCENTAGE OF DOSE
- Percentage of dose per kg b.wt. ([3]; i.v., 90 min, lower GI): 1.45 PERCENTAGE OF DOSE per kg b.wt
- uMoles in tissue ([3]; i.v., 90 min, lower GI): .27 µmol
- uMoles per gram tissue ([3]; i.v., 90 min, lower GI): .18 uMOLES per gram
- uMoles per kg ([3]; i.v., 90 min, lower GI): 178.09 uMOLES per kg
- Percentage of dose in tissue ([3]; i.v., 90 min, lower GI): .63 PERCENTAGE OF DOSE
- Percentage of dose per kg b.wt. ([3]; i.v., 90 min, lung): 1.91 PERCENTAGE OF DOSE per kg b.wt
- uMoles in tissue ([3]; i.v., 90 min, lung): .36 µmol
- uMoles per gram tissue ([3]; i.v., 90 min, lung): .28 uMOLES per gram
- uMoles per kg ([3]; i.v., 90 min, lung): 277.64 uMOLES per kg
- Percentage of dose in tissue ([3]; i.v., 90 min, lung): .83 PERCENTAGE OF DOSE
- Percentage of dose per kg b.wt. ([3]; i.v., 90 min, spleen): .55 PERCENTAGE OF DOSE per kg b.wt
- uMoles in tissue ([3]; i.v., 90 min, spleen): .10 µmol
- uMoles per gram tissue ([3]; i.v., 90 min, spleen): .16 uMOLES per gram
- uMoles per kg ([3]; i.v., 90 min, spleen): 164.06 uMOLES per kg
- Percentage of dose in tissue ([3]; i.v., 90 min, spleen): .24 PERCENTAGE OF DOSE
- Percentage of dose per kg b.wt. ([3]; i.v., 90 min, upper GI): .94 PERCENTAGE OF DOSE per kg b.wt
- uMoles in tissue ([3]; i.v., 90 min, upper GI): .18 µmol
- uMoles per gram tissue ([3]; i.v., 90 min, upper GI): .14 uMOLES per gram
- uMoles per kg ([3]; i.v., 90 min, upper GI): 140.23 uMOLES per kg
- Percentage of dose in tissue ([3]; i.v., 90 min, upper GI): .41 PERCENTAGE OF DOSE
- tissue uptake at 1.5 h ([3]; 90 min, heart): 0.56 %ID/g
- tissue uptake at 1.5 h ([3]; 90 min, kidney): 0.13 %ID/g
- tissue uptake at 1.5 h ([3]; 90 min, liver): 0.46 %ID/g
- tissue uptake at 1.5 h ([3]; 90 min, lower GI): 0.41 %ID/g
- tissue uptake at 1.5 h ([3]; 90 min, lung): 0.64 %ID/g
- tissue uptake at 1.5 h ([3]; 90 min, spleen): 0.38 %ID/g
- tissue uptake at 1.5 h ([3]; 90 min, upper GI): 0.32 %ID/g
- concentration at 1.5 h ([3]; kidney, i.v., 90 min post injection, heading: kidney concentration, read-out: kidney concentration): 57.8 µM
- concentration at 1.5 h ([3]; kidney, i.v., 90 min post injection, read-out: Kidney concentration): 57.8 µM
- concentration at 1.5 h ([3]; liver, i.v., 90 min post injection, read-out: Liver concentration): 202 µM
- concentration at 1.5 h ([3]; liver, i.v., 90 min post injection, read-out: liver concentration): 202 µM
- concentration at 1.5 h ([3]; lower gi, i.v., 90 min, liver standard curve used, may be erroneous, read-out: Lower GI concentration): 178 µM
- concentration at 1.5 h ([3]; lung, i.v., 90 min, liver standard curve used, may be erroneous, read-out: Lung concentration): 278 µM
- concentration at 1.5 h ([3]; spleen, i.v., 90 min, liver standard curve used, may be erroneous, read-out: Spleen concentration): 164 µM
- concentration at 1.5 h ([3]; upper gi, i.v., 90 min, liver standard curve used, may be erroneous, read-out: Upper GI concentration): 140 µM
- Percentage of dose per kg. body wt. ([4]; 0-10 min): 6.48 PERCENTAGE OF DOSE per kg. bod
- Percentage of dose per kg. body wt. ([4]; 10-20 min): 11.22 PERCENTAGE OF DOSE per kg. bod
- Percentage of dose per kg. body wt. ([4]; 20-30 min): 13.78 PERCENTAGE OF DOSE per kg. bod
- Percentage of dose per kg. body wt. ([4]; 30-40 min): 12.34 PERCENTAGE OF DOSE per kg. bod
- Percentage of dose per kg. body wt. ([4]; 40-50 min): 12.30 PERCENTAGE OF DOSE per kg. bod
- Percentage of dose per kg. body wt. ([4]; 50-60 min): 12.60 PERCENTAGE OF DOSE per kg. bod
- Percentage of dose per kg. body wt. ([4]; 60-70 min): 7.73 PERCENTAGE OF DOSE per kg. bod
- Percentage of dose per kg. body wt. ([4]; 70-80 min): 7.44 PERCENTAGE OF DOSE per kg. bod
- Percentage of dose per kg. body wt. ([4]; 80-90 min): 6.37 PERCENTAGE OF DOSE per kg. bod
- Percentage of dose per kg. body wt. ([4]; period 10-0 min (pre-injection)): .70 PERCENTAGE OF DOSE per kg. bod
- Cmax at 1.5 h ([4]; rat, bile, iv, 100 umol/kg): 0.5 µM
- concentration at 0 h ([4]; rat, bile, iv, 100 umol/kg): 635 µM
- concentration at 5 min ([4]; rat, bile, iv, 100 umol/kg): 3010 µM
- concentration at 10 min ([4]; rat, bile, iv, 100 umol/kg): 3010 µM
- concentration at 0.25 h ([4]; rat, bile, iv, 100 umol/kg): 5780 µM
- concentration at 20 min ([4]; rat, bile, iv, 100 umol/kg): 5780 µM
- concentration at 25 min ([4]; rat, bile, iv, 100 umol/kg): 6440 µM
- concentration at 0.5 h ([4]; rat, bile, iv, 100 umol/kg): 6440 µM
- concentration at 35 min ([4]; rat, bile, iv, 100 umol/kg): 7800 µM
- concentration at 40 min ([4]; rat, bile, iv, 100 umol/kg): 7800 µM
- concentration at 50 min ([4]; rat, bile, iv, 100 umol/kg): 7640 µM
- concentration at 55 min ([4]; rat, bile, iv, 100 umol/kg): 8460 µM
- concentration at 1 h ([4]; rat, bile, iv, 100 umol/kg): 8460 µM
- concentration at 65 min ([4]; rat, bile, iv, 100 umol/kg): 5370 µM
- concentration at 70 min ([4]; rat, bile, iv, 100 umol/kg): 5370 µM
- concentration at 1.25 h ([4]; rat, bile, iv, 100 umol/kg): 5310 µM
- concentration at 80 min ([4]; rat, bile, iv, 100 umol/kg): 5310 µM
- concentration at 85 min ([4]; rat, bile, iv, 100 umol/kg): 4660 µM
- concentration at 1.5 h ([4]; rat, bile, iv, 100 umol/kg): 4660 µM
- dose excreted at 1.5 h ([4]; rat, bile, iv, 100 umol/kg): 40%
